The source of these data is patent US20220409617A1, “Drug Formulations and Methods of Treatment for Metabolic Disorders” (The Regents of the University of California, priority 2019, published 2022).

For this data set, the system named is diet-induced obesity. In words: Weight loss intervention study in HFD-fed mice. The format is in vivo. As to the method: Given its ability to correct HFD-induced mitochondrial fragmentation in vivo, sphingolipid-like compound 893 was evaluated as an interventional therapy for diet-induced obesity. Six-week old male, C57BL/6J mice were fed the HFD for 45 days; an age-matched cohort of control mice was maintained on the SD throughout the study. After 45 days, the average body weight of HFD-fed mice was approximately 130% that of chow-fed mice (FIGS. 15 to 17). Using quantitative nuclear magnetic resonance imaging, fat mass represented 21% of the body weight of mice that had consumed the HFD for 45 days and 12% of body weight in controls fed the standard diet; changes in lean body mass were of lesser magnitude (FIG. 17). At this point, HFD-fed mice were randomly assigned to receive vehicle (water), 60 mg/kg, or 120 mg/kg sphingolipid-like compound 893 by gavage; SD mice were treated with vehicle. Based on the increased activity of mice during the dark cycle (ZT12-ZT24) and the plasma pharmacokinetics of orally administered sphingolipid-like compound 893 (see FIG. 12), mice were treated at ZT8.5 on Mondays, Wednesdays, and Fridays. […] In the group receiving 120 mg/kg sphingolipid-like compound 893, the rate of weight loss slowed after 10 days. […] Despite continued treatment with the high dose of sphingolipid-like compound 893, weight loss plateaued once body weight matched that of SD controls (FIGS. 16 and 18). […] As in a prior report where mice were dosed 5-7 days a week for 11 weeks (S. M. Kim, et al., 2016, cited supra), sphingolipid-like compound 893 was well-tolerated, and the behavior of sphingolipid-like compound 893-treated mice was overtly normal throughout the study.
All animal experiments were performed in accordance with the Institutional Animal Care and Use Committee of University of California, Irvine. Male mice were used in all experiments. C57BL/6J mice (stock no 000664) and ob/ob mice (stock no 000632) were purchased from the Jackson Laboratory and were acclimated for 7 days prior to beginning experiments. Mice were housed under a 12:12 h light-dark cycle at 20-22° C. in groups of 4-5. Cages contained ⅛″ corncob bedding (7092A, Envigo, Huntingdon, UK) enriched with ˜6 g of cotton fiber nestlets (Ancare Corp., Bellmore, N.Y.). Access to food and water was ad libitum unless otherwise specified. For HFD studies, 8 week old C57BL/6J males were randomly assigned to either a 45% kcal from fat diet (HFD; D12451, Research Diets Inc., New Brunswick, N.J.) or 10% kcal from fat diet designed to match D12451 for other components (SD; D12450B, Research Diets Inc). Mice were maintained on these diets for up to 22 weeks as indicated. Ob/ob mice were fed the vivarium stock diet which contained 16% kcal from fat (2020×, Envigo). Polypropylene feeding tubes (20 g×38 mm; Instech Laboratories Inc., Plymouth, Pa.) were utilized for gavage and dipped into a 1 g/ml sucrose solution immediately prior to treatment to induce salivation.
HFD-fed mice were randomly assigned to experimental groups receiving either vehicle (water) or sphingolipid-like compound 893 at 60 mg/kg or 120 mg/kg by oral gavage on Mondays, Wednesdays, and Fridays. Mice were maintained on the HFD throughout the study. The SD group was treated with vehicle on the same schedule. Group size was initially n=10; one animal from the 60 mg/kg group that was euthanized due to gavage error was excluded from the analysis making this group n=9. All treatments and measurements were performed between ZT8 and ZT10 unless otherwise noted. Body weight and food consumption were monitored Monday-Friday. Body composition was determined weekly in live animals using an EchoMRI™ Body Composition Analyzer (EchoMRI™ Corp., Singapore). Mice were euthanized and tissues collected 4 h after treatment. Where indicated, mice were fasted for 6 h.

SMILES strings stand for the structures.

Regarding `CCCCCCCCc1ccc([C@H]2CCN[C@@H]2CO)cc1.Cl` [compound 893], the Fat mass gain result (HFD-fed mice, 60 mg/kg) is “gained fat mass at a similar rate to mice fed a standard diet”. In addition, the “Body weight versus chow-fed controls” value was “no longer gained weight, but did not match chow-fed controls” (HFD-fed mice, 60 mg/kg by gavage Mon/Wed/Fri) and “no longer statistically different from that of mice continuously fed a standard chow diet” (HFD-fed mice, 120 mg/kg by gavage Mon/Wed/Fri, after 2 weeks (6 doses)). For the same compound, the “Body weight change during treatment” value (HFD-fed mice, 60 mg/kg or 120 mg/kg by gavage Mon/Wed/Fri) is recorded as “dose-dependent weight loss”. In addition, the Tolerability result (HFD-fed mice, 60 or 120 mg/kg Mon/Wed/Fri) is “well-tolerated”. Further, the “Body composition underlying weight loss (fat mass, lean mass)” value (HFD-fed mice, 60 or 120 mg/kg, EchoMRI) is listed as “a decline in fat mass with little change in lean mass”. In addition, under “HFD-fed wild type mice, six doses of 120 mg/kg over 2 weeks”, the “Reduction of body weight” value stood at 10%.
